According to paper PMC12040169 (PLOS Biology, 2025):

Assay: in vitro
Settings: human, hela cells, % viability

Compound	viability at 28.5 h, 10 µM [%]
COc1ccc(-c2cnc3[nH]c(=O)n([C@H](CO)C(C)C)c3n2)c(OC)c1OC [CBK065008]	99.1
CC(C)Cn1c(=O)[nH]c2ncc(-c3ccc(O)cc3)nc21 [CBK065011]	105
COc1ccc(-n2c(=O)[nH]c3ncc(-c4ccco4)nc32)c(C)c1 [CBK065019]	101
O=c1[nH]c2ncc(-c3cccc(Br)c3)nc2n1Cc1ccccn1 [CBK065020]	101
CN(C)CCn1c(=O)[nH]c2ncc(-c3cc(C(F)(F)F)cc(C(F)(F)F)c3)nc21 [CBK065028]	112
O=C(NCCO)c1cccc(-c2cnc3[nH]c(=O)n(Cc4ccccn4)c3n2)c1 [CBK065034]	96.5
COc1cccc(-c2cnc3[nH]c(=O)n(CCCO)c3n2)c1 [CBK065036]	93.3
O=C(NC1CCCC1)c1ccc(-c2cnc3[nH]c(=O)n(Cc4ccc(Cl)cc4)c3n2)cc1 [CBK065039]	94.7
O=C(NCCO)c1ccc(-c2cnc3[nH]c(=O)n(C4CCOCC4)c3n2)cc1 [CBK065041]	108
COCCCn1c(=O)[nH]c2ncc(-c3cccc(C(=O)NCCO)c3)nc21 [CBK065042]	118
CC(C)[C@H](CO)n1c(=O)[nH]c2ncc(-c3cccc(/C=C/C(=O)O)c3)nc21 [CBK065051]	92.5
CS(=O)(=O)Nc1cccc(-c2cnc3[nH]c(=O)n(Cc4ccc(S(C)(=O)=O)cc4)c3n2)c1 [CBK065061]	98.6
CN(C)CCNC(=O)c1cccc(-c2cnc3[nH]c(=O)n(Cc4ccc(S(C)(=O)=O)cc4)c3n2)c1 [CBK065069]	109
O=C(O)/C=C/c1cccc(-c2cnc3[nH]c(=O)n(C4CC4)c3n2)c1 [CBK065091]	93.5
O=c1[nH]c2ncc(-c3cncc4ccccc34)nc2n1Cc1ccccc1 [CBK065113]	99.1
COc1ncc(-c2cncc(N3CCN(c4ccc(OC)c(OC)c4)CC3)n2)c(OC)n1 [CBK065169]	89.5
COc1ccc(C(C)C)cc1-c1cncc(NCCc2c[nH]c3ccccc23)n1 [CBK065174]	96.5
COc1cc(Nc2cncc(-c3ccc4ccccc4c3)n2)cc(OC)c1OC [CBK065176]	61.7
c1cncc(-c2cncc(NCCc3c[nH]c4ccccc34)n2)c1 [CBK065186]	89.7
CC(C)c1ccc(-c2cncc(NCCCN3CCOCC3)n2)cc1 [CBK065196]	97.7
COc1ccc(C(C)C)cc1-c1cncc(NCC(C)(C)CO)n1 [CBK065206]	106
COc1ncc(-c2cncc(NCc3cccc(Cl)c3)n2)c(OC)n1 [CBK065211]	106
COc1cc(-c2cncc(Nc3cccc(C(F)(F)F)c3)n2)cc(OC)c1OC [CBK065213]	120
CN(C)CCNC(=O)c1cccc(-c2cncc(Nc3cccc(Cl)c3)n2)c1 [CBK065229]	104

Compound	viability at 28.5 h, 10 µM [%]
Clc1ccc(Nc2cncc(-c3cccnc3)n2)cc1 [CBK065234]	105
COc1cc(-c2cncc(NCc3ccco3)n2)cc(OC)c1OC [CBK065259]	99.9
Nc1cccc(-c2cncc(Nc3ccccc3)n2)c1 [CBK065265]	96.2
COc1cc(-c2cncc(NCCCO)n2)cc(OC)c1OC [CBK065271]	95.5
COc1cc(Nc2cncc(-c3cccc(F)c3)n2)cc(OC)c1OC [CBK065272]	93
CCC(CO)Nc1cncc(-c2cccc(N)c2)n1 (stereo not drawn) [CBK065278]	103
COc1ncc(-c2cncc(Nc3ccccc3)n2)c(OC)n1 [CBK065282]	100
Clc1cccc(CNc2cncc(-c3cccnc3)n2)c1 [CBK065283]	104
COc1ccc(C(C)C)cc1-c1cncc(Nc2ccc(Cl)cc2)n1 [CBK065285]	108
COc1ncc(-c2cncc(N3CCCN(C)CC3)n2)c(OC)n1 [CBK065286]	104
CCCC/C=C/c1cncc(NCc2cccc(Cl)c2)n1 [CBK065293]	97.3
CN1CCCN(c2cncc(-c3ccc(F)c(Cl)c3)n2)CC1 [CBK065297]	96.4
COc1cc(-c2cncc(N(C)CCN(C)C)n2)cc(OC)c1OC [CBK065312]	90.5
c1cncc(-c2cncc(NCc3ccc4c(c3)OCO4)n2)c1 [CBK065313]	94.6
CCNc1cncc(-c2ccc(F)c(Cl)c2)n1 [CBK065322]	101
Clc1cccc(-c2cncc(NCc3ccc4c(c3)OCO4)n2)c1 [CBK065323]	94.8
CC(C)[C@H](CO)Nc1cncc(-c2ccccc2CO)n1 [CBK065326]	88.6
COc1cncc(-c2cncc(N[C@H](CO)C(C)C)n2)c1 [CBK065329]	106
OCc1ccccc1-c1cncc(N2CCCC2CO)n1 (stereo not drawn) [CBK065333]	106
CCNc1cncc(-c2cc(OC)c(OC)c(OC)c2)n1 [CBK065336]	99.1
Fc1ccc(-c2cncc(NCc3ccncc3)n2)cc1Cl [CBK065343]	94.7
CC(C)c1ccc(-c2cncc(NCc3cccc(Cl)c3)n2)cc1 [CBK065347]	106
CCNc1cncc(-c2cncc(OC)c2)n1 [CBK065366]	91.9
CCNc1cncc(-c2ccc(OC)cc2)n1 [CBK065370]	92.1

Compound	viability at 28.5 h, 10 µM [%]
CCCC/C=C/c1cncc(N(C)CCN(C)C)n1 [CBK065374]	91.1
CC(C)(CO)CNc1cncc(-c2ccc(O)cc2)n1 [CBK065386]	113
COc1ccc(CNc2cncc(-c3cncc(OC)c3)n2)cc1 [CBK065388]	98.5
COc1cc(-c2cncc(N3CCCC3CO)n2)cc(OC)c1OC (stereo not drawn) [CBK065389]	104
CN(C)CCNC(=O)c1cccc(-c2cncc(N3CCN(c4ccncc4)CC3)n2)c1 [CBK065391]	100
CCCC/C=C/c1cncc(N2CCCC2CO)n1 (stereo not drawn) [CBK065402]	91.8
CC(=O)Nc1cccc(-c2cncc(NC3CCC(O)CC3)n2)c1 (stereo not drawn) [CBK065404]	88.6
CN(C)CCN1CCN(c2cncc(-c3cccnc3)n2)CC1 [CBK065416]	93.2
COc1cc(CNc2cncc(-c3cccc(C(=O)NCCO)c3)n2)cc(OC)c1OC [CBK065421]	98.5
CC(C)[C@@H](CO)Nc1cncc(-c2cccc(CO)c2)n1 [CBK065427]	95.2
OCC1CCCN1c1cncc(-c2cccnc2)n1 (stereo not drawn) [CBK065439]	100
CCCNc1cncc(-c2cccc(F)c2)n1 [CBK065441]	97.3
OCc1cccc(-c2cncc(NC3CCC(O)CC3)n2)c1 (stereo not drawn) [CBK065448]	102
OC1CCC(Nc2cncc(-c3cccc(F)c3)n2)CC1 (stereo not drawn) [CBK065449]	97.8
OC1CCC(Nc2cncc(-c3ccc4ccccc4c3)n2)CC1 (stereo not drawn) [CBK065463]	91.7
CC(C)[C@@H](CO)Nc1cncc(-c2cccnc2)n1 [CBK065467]	98.5
CCCC/C=C/c1cncc(N[C@@H](C)c2ccccc2)n1 [CBK065472]	109
COc1cc(CNc2cncc(-c3ccc(N)cc3)n2)cc(OC)c1OC [CBK065483]	96.5
CC(CCCC(C)(C)O)Nc1cncc(-c2cccc(C(=O)O)c2)n1 (stereo not drawn) [CBK065489]	103
CC(C)[C@H](CO)Nc1cncc(-c2cccc3ccccc23)n1 [CBK065501]	85.9
COc1ccc(C(C)C)cc1-c1cncc(N[C@@H](C)c2ccccc2)n1 [CBK065504]	115
c1ccc(CCNc2cncc(-c3cccs3)n2)nc1 [CBK065510]	98.2
O=C(c1ccco1)N1CCN(c2cncc(-c3cccs3)n2)CC1 [CBK065518]	114
C[C@H](Nc1cncc(-c2ccccc2CO)n1)c1ccccc1 [CBK065520]	116

Compound	viability at 28.5 h, 10 µM [%]
CC(CCCC(C)(C)O)Nc1cncc(-c2ccccc2CO)n1 (stereo not drawn) [CBK065529]	96.3
CCC(CO)Nc1cncc(-c2cccs2)n1 (stereo not drawn) [CBK065534]	110
COc1ccc(C(C)C)cc1-c1cncc(N[C@H](C)c2ccccc2)n1 [CBK065535]	105
COc1cncc(-c2cncc(N[C@H](C)c3ccccc3)n2)c1 [CBK065537]	98.9
CN1CCCN(c2cncc(-c3cccs3)n2)CC1 [CBK065542]	101
CC(C)[C@H](CO)Nc1cncc(-c2cccc(N(C)C)c2)n1 [CBK065547]	81.9
CN(C)c1cccc(-c2cncc(NCc3ccco3)n2)c1 [CBK065555]	106
CC(C)[C@@H](CO)Nc1cncc(-c2cccc3ccccc23)n1 [CBK065566]	98.4
CCC(CO)Nc1cncc(-c2cccc(/C=C/C(=O)O)c2)n1 (stereo not drawn) [CBK065569]	114
c1coc(CNc2cncc(-c3cccc4ccccc34)n2)c1 [CBK065573]	115
c1csc(-c2cncc(NCc3ccncc3)n2)c1 [CBK065583]	94.6
CC(=O)Nc1ccc(-c2cncc(NCCCO)n2)cc1 [CBK065598]	103
CC(C)(CO)CNc1cncc(-c2cccs2)n1 [CBK065599]	88.3
c1csc(-c2cncc(NCCCN3CCOCC3)n2)c1 [CBK065623]	102
c1coc(CNc2cncc(-c3cccs3)n2)c1 [CBK065630]	96.6
CN(C)c1cccc(-c2cncc(NCCCN3CCOCC3)n2)c1 [CBK065635]	94.8
C[C@@H](Nc1cncc(-c2cccc3ccccc23)n1)c1ccccc1 [CBK065646]	93.4
CN(C)CCN(C)c1cncc(-c2ccc(F)cc2F)n1 [CBK065652]	90.9
C[C@H](Nc1cncc(-c2cccc3ccccc23)n1)c1ccccc1 [CBK065654]	93.6
N#Cc1ccccc1N1CCN(c2cncc(-c3cccs3)n2)CC1 [CBK065656]	104
CCNc1cncc(-c2ccc(N)cc2)n1 [CBK065658]	112
